Structures are written as SMILES.

In experiment [1] the target is T1, BTK (Homo sapiens, UniProt Q06187). Briefly: K562 cell assay and Western blotting of BTK levels. The class given is cell-based. Further details: endogenous in cells; host or cells: K562 cells. As to conditions: K562 cells, 200 nM, 1 μM, or 5 μM, 12 hours. The method, then: K562 cells were treated with DMSO or with 200 nM, 1 μM, or 5 μM of a BTK bifunctional inhibitor compound of the disclosure for 12 hours, followed by protein lysate harvest and Western blotting analysis.
T1 sequence (Q06187 whole entry): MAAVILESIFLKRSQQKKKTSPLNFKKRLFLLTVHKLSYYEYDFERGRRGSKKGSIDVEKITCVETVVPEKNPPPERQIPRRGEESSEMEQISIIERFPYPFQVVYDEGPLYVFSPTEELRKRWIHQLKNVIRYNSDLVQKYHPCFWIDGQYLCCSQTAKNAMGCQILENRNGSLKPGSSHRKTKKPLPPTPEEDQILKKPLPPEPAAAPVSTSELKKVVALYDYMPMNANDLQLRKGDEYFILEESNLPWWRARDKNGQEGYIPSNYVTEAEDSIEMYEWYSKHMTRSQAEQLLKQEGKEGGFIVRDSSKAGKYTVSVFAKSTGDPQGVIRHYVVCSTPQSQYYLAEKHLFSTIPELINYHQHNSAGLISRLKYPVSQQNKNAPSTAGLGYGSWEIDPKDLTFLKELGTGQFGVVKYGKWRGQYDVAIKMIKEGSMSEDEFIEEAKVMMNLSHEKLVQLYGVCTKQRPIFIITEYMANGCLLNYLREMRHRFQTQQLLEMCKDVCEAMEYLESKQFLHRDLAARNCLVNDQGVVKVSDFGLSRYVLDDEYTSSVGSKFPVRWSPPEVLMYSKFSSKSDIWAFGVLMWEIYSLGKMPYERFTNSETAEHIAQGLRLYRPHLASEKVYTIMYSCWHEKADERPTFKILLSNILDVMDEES
(§1) Cells are lysed using RIPA buffer supplemented with protease inhibitor cocktail (Roche) and phosSTOP phosphatase inhibitor cocktail (Roche) on ice for 15 minutes. The lysates are spun at 20,000×g for 15 minutes on 4° C. and protein concentration is determined using BCA assay (Pierce). The following primary antibodies are used in this study: BTK, GADPH, tubulin and Aurora A kinase (all from Cell Signaling Technology). Blots are imaged using fluorescence-labeled secondary antibodies (LI-COR) on the OdysseyCLxImager (LI-COR). Quantification of band intensities is performed using OdysseyCLx software (LI-COR).
For orientation: A western blot detects proteins with antibodies after separation by electrophoresis.

The target in experiment [2] is T1, BTK. The experiment in a line: MOLM14 cell assay and Western blotting of BTK, Aurora A and tubulin levels. The class given is cell-based. The arrangement: endogenous in cells. Particulars: MOLM14 cells, 40 nM, 200 nM, 1 μM, 4 hours. The method, then:
MOLM14 cells were treated with DMSO or with 40 nM, 200 nM, 1 μM of a BTK bifunctional inhibitor compound of the disclosure for 4 hours, followed by protein lysate harvest and Western blotting analysis of BTK, Aurora A, and ca-tubulin levels. […] (FIG. 2)
as §1

As for `COc1cc(Nc2c(C#N)cnc3cc(OCCCN4CCN(CCOCCOCCOCCNc5cccc6c5C(=O)N(C5CCC(=O)NC5=O)C6=O)CC4)c(OC)cc23)c(Cl)cc1Cl` (stereo not drawn) [Compound I-2], the “BTK degradation (Western blot)” value at BTK [1] was “showed BTK degradation”. Take `COc1cc(Nc2c(C#N)cnc3cc(OCCCN4CCN(CCOCCOCCNc5cccc6c5C(=O)N(C5CCC(=O)NC5=O)C6=O)CC4)c(OC)cc23)c(Cl)cc1Cl` (stereo not drawn) [Compound I-3]: at BTK [2], the “BTK degradation (Western blot)” value is reported as “showed BTK degradation”.

For `COc1cc(Nc2c(C#N)cnc3cc(OCCCN4CCN(C(=O)CCCNC(=O)COc5cccc6c5C(=O)N(C5CCC(=O)NC5=O)C6=O)CC4)c(OC)cc23)c(Cl)cc1Cl` (stereo not drawn) [Compound I-5], the “BTK degradation (Western blot)” value at BTK [1] is “showed BTK degradation”.
